Measured values from ChEMBL document CHEMBL5236551, “Andrographolide and its derivatives: Current achievements and future perspectives” (Eur J Med Chem, 2021).
In brackets after ≈: the same amount, converted by molar mass. Values belong to the compound of their own block, whether it stands above or below them.

Columns and labels:
Pseudomonas aeruginosa [1] = assay: Antibiofilm activity against Pseudomonas aeruginosa MTCC 7814 assessed as inhibition of biofilm formation at 0.1 mM in presence of azithromycin or gentamicin incubated for 48 hrs relative to control; type: functional; details: MTCC 7814, 48 h
Mus musculus = assay: Anti-inflammatory activity against dimethylbenzene-induced auricular edema Kunming mouse model assessed as inhibition of ear edema at 1.35 mmol/Kg, po administered once daily via gavage for 3 days relative to control; type: functional; details: 72 h, time 3 day
Rattus norvegicus [2] = assay: Anti-inflammatory activity against egg albumin-induced paw edema in Sprague-Dawley rat assessed as inhibition of paw edema at 0.90 mmol/Kg, po preadministered once daily via gavage for 3 days followed by egg albumin addition measured at 120 min by plethysmometric analysis relative to control; type: functional; details: 72 h, at 0.9 mmol/kg, time 3 day
[3] = Antimigratory activity against human LX2 cells assessed as inhibition rate at 5 uM relative to control; type: functional; details: LX-2
[4] = Inhibition of TGF-beta1 induced mesenchymal transformation in human A549 cells assessed as inhibition rate at 1.25 uM relative to control; type: functional
[5] = Antimigratory activity against Ang II-induced human Cardiac fibroblast cells assessed as inhibition rate at 0.16 uM relative to control; type: functional
HCT-116 [6] = assay: Antiproliferative activity against human HCT-116 cells assessed as cell growth inhibition incubated for 72 hrs by CCK8 assay; type: functional, cell-based; details: HCT-116, 72 h
MCF7 [7] = assay: Antiproliferative activity against human MCF7 cells assessed as cell growth inhibition incubated for 72 hrs by CCK8 assay; type: functional, cell-based; details: MCF7, 72 h
[8] = system: Human immunodeficiency virus 1; assay: Antiviral activity against HIV-1 infected in human C8166 cells; type: functional, organism-based; details: Human immunodeficiency virus 1, C8166
Rattus norvegicus [9] = assay: Anti-inflammatory activity against egg white-induced paw edema in rat model assessed as detumescence rate measured after 6 hrs relative to control; type: functional
Pseudomonas aeruginosa [10] = assay: Antibacterial activity against Pseudomonas aeruginosa assessed as bacterial growth inhibition by agar dilution method; type: functional
Klebsiella aerogenes = assay: Antibacterial activity against Klebsiella aerogenes assessed as bacterial growth inhibition by agar dilution method; type: functional
NCI/ADR-RES = assay: Cytotoxicity against human MCF7/ADR cells assessed as cell growth inhibition after 48 hrs by SRB assay; type: functional, cell-based
MCF7 [11] = assay: Cytotoxicity against human MCF7 cells assessed as cell growth inhibition after 48 hrs by SRB assay; type: functional, cell-based; details: MCF7, 48 h
SW-620 = assay: Cytotoxicity against human SW620 cells assessed as cell growth inhibition after 48 hrs by SRB assay; type: functional, cell-based; details: SW-620, 48 h
HT-29 = assay: Cytotoxicity against human HT-29 cells assessed as cell growth inhibition after 48 hrs by SRB assay; type: functional, cell-based; details: HT-29, 48 h
NCI-H522 = assay: Cytotoxicity against human NCI-H522 cells assessed as cell growth inhibition after 48 hrs by SRB assay; type: functional, cell-based; details: NCI-H522, 48 h
UACC-62 = assay: Cytotoxicity against human UACC-62 cells assessed as cell growth inhibition after 48 hrs by SRB assay; type: functional, cell-based; details: UACC-62, 48 h
OVCAR-8 = assay: Cytotoxicity against human OVCAR-8 cells assessed as cell growth inhibition after 48 hrs by SRB assay; type: functional, cell-based; details: OVCAR-8, 48 h
DU-145 = assay: Cytotoxicity against human DU-145 cells assessed as cell growth inhibition after 48 hrs by SRB assay; type: functional, cell-based; details: DU-145, 48 h
PC-3 = assay: Cytotoxicity against human PC-3 cells assessed as cell growth inhibition after 48 hrs by SRB assay; type: functional, cell-based; details: PC-3, 48 h
HCT-116 [12] = assay: Antiproliferative activity against human HCT-116 cells assessed as cell growth inhibition measured after 48 hrs by MTT assay; type: functional, cell-based; details: HCT-116, 48 h
Rattus norvegicus [13] = organism: Rattus norvegicus; assay: Antiplatelet activity against collagen-induced Sprague-Dawley rat platelet aggregation assessed as inhibition of platelet aggregation preincubated for 2 mins followed by collagen addition by turbidimetric method; type: functional; details: Arterial blood
Rattus norvegicus [14] = organism: Rattus norvegicus; assay: Antiplatelet activity against arachidonic acid-induced Sprague-Dawley rat platelet aggregation assessed as inhibition of platelet aggregation preincubated for 2 mins followed by arachidonic acid addition by turbidimetric method; type: functional; details: Arterial blood
Rattus norvegicus [15] = organism: Rattus norvegicus; assay: Antiplatelet activity against thrombin-induced Sprague-Dawley rat platelet aggregation assessed as inhibition of platelet aggregation preincubated for 2 mins followed by thrombin addition by turbidimetric method; type: functional; details: Arterial blood

Structure (SMILES): C=C1CCC2[C@](C)(CO)[C@H](O)CC[C@@]2(C)[C@@H]1/C=C/C1=CCOC1=O (stereo partly drawn)
inhibition at 100 µM (Pseudomonas aeruginosa [1]): 92%

Structure (SMILES): C=C1CC[C@@H]2[C@](C)(COC(=O)c3cccnc3)[C@H](OC(=O)c3cccnc3)CC[C@@]2(C)[C@@H]1/C=C/C1=CC(=C/c2ccc(Cl)cc2)/OC1=O
inhibition in vivo at 1350 µmol/kg (Mus musculus): 79.4% | inhibition in vivo at 900 µmol/kg (Rattus norvegicus [2]): 50.4%

Structure (SMILES): C=C1CCC2[C@](C)(C=O)c3nc(N)sc3C[C@@]2(C)[C@@H]1/C=C/C1=CCOC1=O (stereo partly drawn)
inhibition at 5 µM [3]: > 20% | inhibition at 1.25 µM [4]: > 65%

Structure (SMILES): C=C1CCC2[C@](C)(CO)NC(=O)CC[C@@]2(C)[C@@H]1/C=C/C1=CCOC1=O (stereo partly drawn)
inhibition at 5 µM [3]: > 40% | inhibition at 1.25 µM [4]: > 60% | inhibition at 0.16 µM [5]: > 95%

Structure (SMILES): C=C1CC[C@H]2[C@@](C)(C=CC(=O)[C@@]2(C)COC(=O)c2ccccc2)[C@@H]1C/C=C1/C(=O)OC[C@H]1O
IC50 (HCT-116 [6]): 2.49 µM | IC50 (MCF7 [7]): 7.8 µM

Structure (SMILES): C[C@@]12CCC3[C@](C)(COC(=O)CCC(=O)O)[C@H](OC(=O)CCC(=O)O)CC[C@@]3(C)[C@@H]1CC(C1=CCOC1=O)O2 (stereo partly drawn)
inhibition (INH) (Rattus norvegicus [9]): 93.18%

Structure (SMILES): C=C1CCC2[C@](C)(CO)[C@H](O)CC[C@@]2(C)[C@@H]1C/C=C/c1ccc(F)cc1 (stereo partly drawn)
IC50 (NCI/ADR-RES): 4 µM | IC50 (MCF7 [11]): 14 µM | IC50 (SW-620): 20 µM | IC50 (HT-29): 16 µM | IC50 (NCI-H522): 3 µM | IC50 (UACC-62): 17 µM | IC50 (OVCAR-8): 2 µM | IC50 (DU-145): 7 µM | IC50 (PC-3): 14 µM

Structure (SMILES): C=C1CCC2[C@](C)(COC(=O)Cc3cccc4ccccc34)[C@H](OC(=O)c3cccnc3)CC[C@@]2(C)[C@@H]1/C=C/C1=CCOC1=O (stereo partly drawn)
IC50 [8]: 9.69 µM

Next, values leading:

IC50 [8]: 4.1 µM
Structure (SMILES): C=C1CCC2[C@](C)(CO)[C@H](O)CC[C@@]2(C)[C@@H]1CCC1C(=O)N(C)C[C@H]1O (stereo partly drawn)

MIC (Pseudomonas aeruginosa [10]): 18.9 µg/mL (≈ 47.7 µM) | MIC (Klebsiella aerogenes): 18.9 µg/mL (≈ 47.7 µM)
Structure (SMILES): C=C1CCC2[C@](C)(CO)[C@H](O)CC[C@@]2(C)[C@@H]1C/C=C(/C(=O)OCC)[C@H](O)CO (stereo partly drawn)

IC50 (HCT-116 [12]): 5.8 µM
Structure (SMILES): C=C1CC[C@@H]2[C@](C)(COC(C)=O)[C@H](OC(C)=O)CC[C@@]2(C)[C@@H]1CC(Nc1ccccc1SC)C1=CCOC1=O (stereo partly drawn)

IC50 (Rattus norvegicus [13]): 0.5 µM | IC50 (Rattus norvegicus [14]): 0.48 µM | IC50 (Rattus norvegicus [15]): 0.36 µM
Structure (SMILES): C=C1CCC2[C@](C)(COC(=O)CCC(=O)O)[C@H](OC(=O)CCC(=O)O)CC[C@@]2(C)[C@@H]1/C=C/c1cc(=O)oc2cc(OC(C)=O)ccc12 (stereo partly drawn)
